According to patent US10035777B2, “Heterocyclic kinase inhibitors” (priority 2014, dated 2018):

Target: GST-Xa-hAAK1 (Homo sapiens (Human), UniProt Q2M2I8)
Test: biochemical
Conditions: not given
Protocol: The assays were performed in U-bottom 384-well plates. […] The reactions were initiated by the combination of bacterially expressed, GST-Xa-hAAK1 with substrates and test compounds. The reactions were incubated at room temperature for 3 hours and terminated by adding 60 μl of 35 mM EDTA buffer to each sample. The reactions were analyzed on the Caliper LabChip 3000 (Caliper, Hopkinton, Mass.) by electrophoretic separation of the fluorescent substrate and phosphorylated product. […] Compounds were dissolved at 10 mM in dimethylsulfoxide (DMSO) and evaluated at eleven concentrations. IC50 values were derived by non-linear regression analysis.

GST-Xa-hAAK1, sequence (Q2M2I8 whole entry): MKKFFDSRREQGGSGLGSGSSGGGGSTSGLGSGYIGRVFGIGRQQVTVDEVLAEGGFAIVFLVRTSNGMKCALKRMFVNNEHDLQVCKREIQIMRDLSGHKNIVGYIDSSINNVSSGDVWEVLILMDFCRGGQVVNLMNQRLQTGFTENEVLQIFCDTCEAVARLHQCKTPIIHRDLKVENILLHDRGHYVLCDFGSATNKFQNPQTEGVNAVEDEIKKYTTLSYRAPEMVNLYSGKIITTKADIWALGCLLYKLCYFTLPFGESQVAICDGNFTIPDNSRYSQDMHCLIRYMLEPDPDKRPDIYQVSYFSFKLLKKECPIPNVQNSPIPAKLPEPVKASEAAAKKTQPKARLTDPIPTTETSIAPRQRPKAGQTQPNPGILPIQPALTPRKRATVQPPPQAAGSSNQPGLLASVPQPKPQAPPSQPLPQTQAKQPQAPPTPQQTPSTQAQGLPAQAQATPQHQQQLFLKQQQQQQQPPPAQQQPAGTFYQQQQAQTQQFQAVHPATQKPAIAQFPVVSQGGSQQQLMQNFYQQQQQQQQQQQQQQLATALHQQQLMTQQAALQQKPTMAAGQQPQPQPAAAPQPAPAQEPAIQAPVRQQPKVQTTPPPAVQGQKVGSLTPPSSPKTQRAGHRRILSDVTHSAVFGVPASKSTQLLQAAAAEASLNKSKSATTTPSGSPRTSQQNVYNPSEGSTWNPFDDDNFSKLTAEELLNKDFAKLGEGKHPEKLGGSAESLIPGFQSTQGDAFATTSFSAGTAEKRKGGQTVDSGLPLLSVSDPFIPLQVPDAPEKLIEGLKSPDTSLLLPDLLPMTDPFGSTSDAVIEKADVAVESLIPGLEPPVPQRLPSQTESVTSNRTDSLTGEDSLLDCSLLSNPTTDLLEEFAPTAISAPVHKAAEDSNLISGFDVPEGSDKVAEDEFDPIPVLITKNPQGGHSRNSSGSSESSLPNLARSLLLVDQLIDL

COc1cc2nc([C@H](N)CC(C)C)[nH]c2cc1-c1cnco1 [Example 29, (R)-1-(5-methoxy-6-(oxazol-5-yl)-1H-benzo[d]imidazol-2-yl)-3-methylbutan-1-amine] and CN[C@H](CC(C)C)c1nc2cc(-c3ccncc3)ccc2[nH]1 [Example 62, N,3-dimethyl-1-(5-(pyridin-4-yl)-1H-benzo[d]imidazol-2-yl) butan-1-amine] are the same in IC50: 12 nM for the first, 12 nM for the second.

First: CC(C(N)c1nc2ccc(-c3ccncc3)cc2[nH]1)C(F)(F)F (single isomer, unassigned) [Example 52, 3,3,3-trifluoro-2-methyl-1-(6-(pyridin-4-yl)-1H-benzo[d]imidazol-2-yl)propan-1-amine]
Second: CC(C)C[C@@H](NC(=O)C(F)(F)F)c1nc2cc(-c3ccncc3)ccc2[nH]1 [Example 80, (R)-2,2,2-trifluoro-N-(3-methyl-1-(5-(pyridin-4-yl)-1H-benzo[d]imidazol-2-yl)butyl)acetamide]
The IC50 of the first is 3-fold lower: 232 nM for the first, 697 nM for the second.

In the case of N[C@@H](c1nc2cc(-c3ccncc3)ccc2[nH]1)C1CCOCC1 [Example 77, (R)-(5-(pyridin-4-yl)-1H-benzo[d]imidazol-2-yl) (tetrahydro-2H-pyran-4-yl) methanamine], the IC50 is reported as 436 nM.

Same assay, conditions: ATP 22 μM; GST-Xa-hAAK1 3.5 nM; room temperature for 3 hours; Caliper LabChip 3000; read-out: AAK1 IC50

Going from CC(C)CCc1nc2cc(-c3ccncc3)ccc2o1 [Example 89, 2-isopentyl-5-(pyridin-4-yl)benzo[d]oxazole] to CC(C)CCc1nc2ccc(-c3ccncc3)cc2o1 [Example 85, 2-isopentyl-6-(pyridin-4-yl)benzo[d]oxazole], the IC50 rises from 327 nM to 833 nM (2.5-fold).

Going from CC(C)C[C@@H](N)c1nc2cc(-c3ccncc3F)ccc2[nH]1 [Example 10, (R)-1-(5-(3-fluoropyridin-4-yl)-1H-benzo[d]imidazol-2-yl)-3-methylbutan-1-amine] to COc1cnccc1-c1ccc2[nH]c([C@H](N)CC(C)C)nc2c1 [Example 11, (R)-1-(5-(3-methoxypyridin-4-yl)-1H-benzo[d]imidazol-2-yl)-3-methylbutan-1-amine], the IC50 rises from 44 nM to 93 nM (2.1-fold). The first is the more potent here.

First: CC(C)C[C@@H](N)c1nc2cc(-c3ccnc(N)c3)ccc2[nH]1 [Example 18, (R)-4-(2-(1-amino-3-methylbutyl)-1H-benzo[d]imidazol-5-yl)pyridin-2-amine]
Second: CC(C)C[C@@H](N)c1nc2cc(-c3cc(F)nc(F)c3)ccc2[nH]1 [Example 17, (R)-1-(5-(2,6-difluoropyridin-4-yl)-1H-benzo[d]imidazol-2-yl)-3-methylbutan-1-amine]
The IC50 of the first is 210-fold lower: 19 nM for the first, 3940 nM for the second. The first is the more potent here.

Compared with COc1cc(-c2ccc3[nH]c([C@H](N)CC(C)C)nc3c2)c(F)cn1 [Example 20, (R)-1-(5-(5-fluoro-2-methoxypyridin-4-yl)-1H-benzo[d]imidazol-2-yl)-3-methylbutan-1-amine], CC(C)C[C@@H](N)c1nc2cc(-c3ncnc4[nH]ccc34)ccc2[nH]1 [Example 8, (R)-1-(5-(7H-pyrrolo[2,3-d]pyrimidin-4-yl)-1H-benzo[d]imidazol-2-yl)-3-methylbutan-1-amine] is 120-fold lower in IC50: 489 nM for the first, 4 nM for the second. The second is the more potent here.

First: COc1cnccc1-c1ccc2oc(C(N)CC(C)C)nc2c1 (stereo not drawn) [Example 94, 1-(5-(3-methoxypyridin-4-yl)benzo[d]oxazol-2-yl)-3-methylbutan-1-amine]
Second: CC(C)CC(C)c1nc2cc(-c3ccncc3)ccc2o1 (stereo not drawn) [Example 88, 2-(4-methylpentan-2-yl)-5-(pyridin-4-yl)benzo[d]oxazole]
The IC50 of the first is 4.7-fold higher: 294 nM for the first, 62 nM for the second.

Work on CC(C)CC(C)(N)c1nc2ccc(-c3cnco3)cc2[nH]1 (stereo not drawn) [Example 103, 4-methyl-2-(6-(oxazol-5-yl)-1H-benzo[d]imidazol-2-yl)pentan-2-amine] yielded an IC50 of 158 nM.

Same assay, conditions: read-out: AAK1 IC50

Going from CN[C@H](CC(C)C)c1nc2cc(-c3ccnnc3)ccc2[nH]1 [Example 109, (R)-N,3-dimethyl-1-(5-(pyridazin-4-yl)-1H-benzo[d]imidazol-2-yl)butan-1-amine] to COc1cnccc1-c1cc2nc([C@H](N)CC(C)C)[nH]c2cc1OC [Example 27, (R)-1-(6-methoxy-5-(3-methoxypyridin-4-yl)-1H-benzo[d]imidazol-2-yl)-3-methylbutan-1-amine], the IC50 rises from 428 nM to 2000 nM (4.7-fold).
